Data published in paper PMC9945734 (BMC Medicine, 2023).
Read-outs that look alike come from different tables or passages of the source.

Test system: PC-3-KQ cells
Assay: 3D spheroid invasion assay and screening of FDA-approved drugs
Format: cell-based, human
Conditions: compared to vehicle control; for activity at 0.01 µM / activity at 0.1 µM / activity at 1 µM / activity at 10 µM: Homo sapiens, 72 h, read-out: Invasion rates (%) of each drug’s multiple concentrations
Method: The invasion assay was performed as previously described. […] The plates were then centrifuged at 320 g for 4 min to cluster cells in the bottom of wells and incubated for 3 days. On the fourth day, 40 μL medium was removed from each well, 40 μL of the matrigel-medium mixture was added to each well, and cells were cultured for another 3 days. […] At the end of the incubation, images were taken using a phase contrast microscope (Eclipse Ti2, Nikon, Tokyo, Japan) with 10× object lenses, and the total area of cells and the core sphere area of cells (Fig. 1a) were measured using the Image J software. The invading area was calculated using the following formula: invasion area = total area of cells – core sphere area.
For drug screening, drugs were added to the matrigel-medium mixture when replacing the culture medium on day 4. For the initial round of screening, a final concentration of 10 μM was used for all drugs. Multiple drug concentrations were used for the second round of screening, including 0, 0.001, 0.01, 0.1, 1, and 10 μM. Duplicate wells were repeated for each concentration.

[1] = 0.01 μM (first column so headed), secondary screening of 87 hit compounds (Table S1)
[2] = 0.01 μM (first column so headed), third screening of 25 hit compounds (Table S2)
[3] = 0.01 μM (second column so headed), secondary screening of 87 hit compounds (Table S1)
[4] = 0.01 μM (second column so headed), third screening of 25 hit compounds (Table S2)
[5] = 0.1 μM, secondary screening of 87 hit compounds (Table S1)
[6] = 0.1 μM, third screening of 25 hit compounds (Table S2)
[7] = 1 μM, secondary screening of 87 hit compounds (Table S1)
[8] = 1 μM, third screening of 25 hit compounds (Table S2)
[9] = 10 μM, secondary screening of 87 hit compounds (Table S1)
[10] = 10 μM, third screening of 25 hit compounds (Table S2)

Row | Compound | activity at 0.01 µM [1] [%] | activity at 0.01 µM [3] [%] | activity at 0.1 µM [5] [%] | activity at 1 µM [7] [%] | activity at 10 µM [9] [%] | Invasion rates (%) of each drug’s multiple concentrations (μM) [1] [%] | Invasion rates (%) of each drug’s multiple concentrations (μM) [3] [%] | Invasion rates (%) of each drug’s multiple concentrations (μM) [5] [%] | Invasion rates (%) of each drug’s multiple concentrations (μM) [7] [%] | Invasion rates (%) of each drug’s multiple concentrations (μM) [9] [%] | further results
1 | CCS(=O)(=O)CCn1c([N+](=O)[O-])cnc1C [Tinidazole] | 78.9 | 90.7 | 47.1 | 6.59 | 2.67 |  |  |  |  |  | activity at 0.01 µM [2]: 89.2%; activity at 0.01 µM [4]: 88.2%; activity at 0.1 µM [6]: 90.2%; activity at 1 µM [8]: 8.88%; activity at 10 µM [10]: 2.87%
2 | CCc1c(Cl)c(O)c(Cl)c(O)c1C(=O)O[C@H]1[C@H](O)[C@H](OC)[C@H](OC/C2=C\C=C\C[C@H](O)/C(C)=C/[C@H](CC)[C@@H](O[C@@H]3OC(C)(C)[C@@H](OC(=O)C(C)C)[C@H](O)[C@@H]3O)/C(C)=C/C(C)=C/C[C@@H]([C@@H](C)O)OC2=O)O[C@@H]1C [Fidaxomicin] | 100 | 103 | 99.5 | 96 | 41.5 |  |  |  |  |  | 
3 | CN1C[C@@H]2C[C@H]1CN2c1cc2c(cc1F)c(=O)c(C(=O)O)cn2C1CC1.CS(=O)(=O)O [Danofloxacin (mesylate)] |  |  |  |  |  | 94.09 | 90.56 | 86.22 | 14.57 | 3.38 | Invasion rates (%) of each drug’s multiple concentrations (μM) [2]: 93.23%; Invasion rates (%) of each drug’s multiple concentrations (μM) [4]: 98.11%; Invasion rates (%) of each drug’s multiple concentrations (μM) [6]: 87.17%; Invasion rates (%) of each drug’s multiple concentrations (μM) [8]: 77.40%; Invasion rates (%) of each drug’s multiple concentrations (μM) [10]: 2.06%
4 | CN(C)c1cc(NC(=O)CNC(C)(C)C)c(O)c2c1C[C@H]1C[C@H]3[C@H](N(C)C)C(=O)C(C(N)=O)=C(O)[C@@]3(O)C(=O)C1=C2O.CS(=O)(=O)O.CS(=O)(=O)O.CS(=O)(=O)O.CS(=O)(=O)O [Tigecycline (tetramesylate)] |  |  |  |  |  | 59.60 | 77.93 | 4.93 | 4.75 | 8.35 | Invasion rates (%) of each drug’s multiple concentrations (μM) [2]: 89.06%; Invasion rates (%) of each drug’s multiple concentrations (μM) [4]: 89.80%; Invasion rates (%) of each drug’s multiple concentrations (μM) [6]: 88.10%; Invasion rates (%) of each drug’s multiple concentrations (μM) [8]: 2.36%; Invasion rates (%) of each drug’s multiple concentrations (μM) [10]: 1.12%
5 | CCN1CCN(Cc2ccc(Nc3ncc(F)c(-c4cc(F)c5nc(C)n(C(C)C)c5c4)n3)nc2)CC1.CS(=O)(=O)O [Abemaciclib (methanesulfonate)] |  |  |  |  |  | 93.33 | 94.22 | 93.89 | 89.88 | 47.24 | 
6 | CNC[C@H](O)c1cccc(O)c1.Cl [(R)-(-)-Phenylephrine (hydrochloride)] |  |  |  |  |  | 103.19 | 103.23 | 98.23 | 96.01 | 4.27 | 
7 | Nc1c2ccccc2nc2ccccc12 [9-Aminoacridine] | 96 | 93.3 | 94.7 | 86.4 | 1.63 |  |  |  |  |  | 
8 | CS(=O)(=O)O.C[C@H]1NCc2cc(-c3ccc4c(=O)c(C(=O)O)cn(C5CC5)c4c3OC(F)F)ccc21.O [Garenoxacin (Mesylate hydrate)] |  |  |  |  |  | 89.65 | 95.96 | 85.98 | 96.56 | 48.76 | 
9 | CN(C)[C@@H]1C(O)=C(C(N)=O)C(=O)[C@@]2(O)C(O)=C3C(=O)c4c(O)cccc4[C@@](C)(O)[C@H]3C[C@@H]12.Cl [Tetracycline (hydrochloride)] |  |  |  |  |  | 84.87 | 95.46 | 83.74 | 67.27 | 2.14 | 
10 | CNc1ncc(-c2ccc3c(=O)c(C(=O)O)cn(C4CC4)c3c2C)cc1C [Ozenoxacin] |  |  |  |  |  | 96.05 | 100.15 | 94.32 | 88.16 | 4.14 | 
11 | Spiramycin |  |  |  |  |  | 90.26 | 91.77 | 85.48 | 80.28 | 55.32 | 
12 | CC[C@@]1(O)C[C@H](O[C@H]2C[C@H](N(C)C)[C@H](O[C@H]3C[C@H](O)[C@H](O[C@H]4CCC(=O)[C@H](C)O4)[C@H](C)O3)[C@H](C)O2)c2c(cc3c(c2O)C(=O)c2c(O)cccc2C3=O)[C@H]1C(=O)OC.Cl [Aclacinomycin A hydrochloride] |  |  |  |  |  | 84.24 | 96.55 | 76.95 | 81.36 | 1.28 | 
13 | COc1cccc2c1C(=O)c1c(O)c3c(c(O)c1C2=O)C[C@@](O)(C(=O)CO)C[C@@H]3O[C@H]1C[C@H](N)[C@H](O)[C@H](C)O1.Cl [Doxorubicin (hydrochloride)] |  |  |  |  |  | 93.34 | 92.49 | 89.01 |  | 1.92 | 
14 | C=C1c2cccc(O)c2C(O)=C2C(=O)[C@]3(O)C(O)=C(C(N)=O)C(=O)[C@@H](N(C)C)[C@@H]3[C@@H](O)[C@H]12.Cl [Methacycline (hydrochloride)] |  |  |  |  |  | 68.21 | 75.44 | 57.31 | 4.98 | 3.07 | Invasion rates (%) of each drug’s multiple concentrations (μM) [2]: 93.06%; Invasion rates (%) of each drug’s multiple concentrations (μM) [4]: 92.10%; Invasion rates (%) of each drug’s multiple concentrations (μM) [6]: 89.39%; Invasion rates (%) of each drug’s multiple concentrations (μM) [8]: 5.12%; Invasion rates (%) of each drug’s multiple concentrations (μM) [10]: 2.20%
15 | Cc1ncc([N+](=O)[O-])n1C [Dimetridazole] | 95.7 | 97.8 | 88.8 | 71 | 3.61 |  |  |  |  |  | 
16 | CC(C)C[C@H](NC(=O)CNC(=O)c1cc(Cl)ccc1Cl)B(O)O [Ixazomib] | 35.2 | 76.3 | 22.3 | 3.86 | 1.01 |  |  |  |  |  | activity at 0.01 µM [2]: 83.1%; activity at 0.01 µM [4]: 95.7%; activity at 0.1 µM [6]: 76.1%; activity at 1 µM [8]: 0.53%; activity at 10 µM [10]: 0.3%
17 | C/C(=C\C(=O)OCCCCCCCCC(=O)O)C[C@@H]1OC[C@H](C[C@@H]2O[C@H]2[C@@H](C)[C@H](C)O)[C@@H](O)[C@H]1O [Mupirocin] | 95.2 | 98 | 95.3 | 80 | 5.95 |  |  |  |  |  | 
